Data published in article PMC4438431 (2015).

What was measured:
Assay in all cases: CD titration, Hyperquad 2003 fit
[1] = tested on: c-kitG20T (DNA, G4) AGGGAGGGCGCTGGGAGGATGG; settings: K+ (17 mM K2HPO4/KH2PO4); pH 7.40, 5% DMSO, 20 °C; site 1 of 2, stepwise 1:1; second G4 1.1 × 10^5 M^-1
[2] = tested on: c-mycTGA-de (DNA, G4) GGGTGGGGAGGGTGGGGAA; settings: K+ (17 mM K2HPO4/KH2PO4); pH 7.40, 5% DMSO, 20 °C; site 1 of 2, stepwise 1:1; second G4 2.8 × 10^2 M^-1
[3] = tested on: c-myc1245 (DNA, G4) TGAGGGTGGGTTTTTAGGGTGGGGAA; settings: K+ (17 mM K2HPO4/KH2PO4); pH 7.40, 5% DMSO, 20 °C; conflict: Figure S38 legend prints (5.1 ± 0.2) × 10^4

For `Cn1c2cccc(n2)n(C)c2cccc(n2)n(C)c2cccc(n2)n(C)c2cccc(n2)n(C)c2cccc(n2)n(C)c2cccc1n2`, the Ka1 [1] was “(9.4 ± 0.4) × 10^4 M^-1”, the Ka [2] was “(5.1 ± 0.2) × 10^4 M^-1” and the Ka [3] was “(1.3 ± 0.05) × 10^6 M^-1”.
